Results reported in PubChem BioAssay (NCI).
Several values for one entry are separate records, joined by “and”; a condition that tells them apart may be missing. Identical values can stand only once.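 Step 1: Grow cells in 96-well plates. Step 2: Expose to compound for 48 hours at 5 concentrations. Step 3: Interpolate endpoints linearly; if unreached, use highest concentration. Here, GI50 denotes the concentration required for 50% inhibition of growth. TGI is the concentration that stops growth completely.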

Tested on: MDA-MB-468 breast
Assay: growth of human tumour cells (NCI), 48 h

Row | Structure (SMILES) | GI50 [µM] | TGI
1 | Cc1ccc2c(n1)C(=O)C(Cl)=C(Nc1cccc(C(C)C)c1)C2=O | 1.2 | 2.61 µM
2 | COc1cc(C(=O)/C=C/c2c(-c3ccc(F)cc3)nc3sccn23)cc(OC)c1OC | 2.81 | 13.6 µM
3 | Cc1cc(-c2ccccc2)c(C)n1Cc1ccc(Cl)cc1 | 1.42 | 7.54 µM
4 | NC1=CC(=O)C(=O)c2cccnc21 | 10.6 | 22.5 µM
5 | O=C1C2C(C(=O)[N]1[Hg][c]1ccccc1)C1(Cl)C(Cl)=C(Cl)C2(Cl)C1(Cl)Cl (configuration not stated) | 0.233 | 0.728 µM
6 | COCCNc1ccc2ncc(C#Cc3cncc(C(=O)Nc4ccc(CN5CCN(C)CC5)c(C(F)(F)F)c4)c3)n2n1 | 0.101 | 0.26 µM
7 | CC1=C[C@H]2c3c(c(O)c(O)c4oc5cc(O)cc(O)c5c(=O)c34)[C@H](c3cc(O)c(O)c4oc5cc(O)cc(O)c5c(=O)c34)[C@H]2C(C)(C)C1 | 2.07 | 5.67 µM and 6.25 µM
8 | c1ccc(Cn2cc3c(c2)-c2oncc2CC3)cc1 | 0.331 | 
9 | O=C(O)c1cn(C2CC2)c2cc(N3CCN(S(=O)(=O)c4ccc(Cl)c(Cl)c4)CC3)c(F)cc2c1=O | 2.24 | 6.89 µM
10 | CCOC(=O)Nc1nc2c(F)c(F)c(F)cc2s1 | 53.9 | > 100 µM
11 | CC(=O)OC1CCC2(C)C(CCC3C2CCC2(C)C(C4=CC(=O)OC4)CCC32)C1 (configuration not stated) | 5.26 | 44.9 µM
12 | C=C(C=O)[C@@H]1CC[C@]2(C)[C@H](CC=C3[C@H]4[C@@H](C)[C@H](C)CC[C@]4(C(=O)OC)CC[C@]32C)[C@@]1(C)CCC#N | 1.6 | 3.24 µM
13 | CCN(CC)c1ccc(/C=C/C(=O)c2cccc(NS(C)(=O)=O)c2)cc1 | 3.84 | > 100 µM
14 | CN1CCN(c2nc(-c3csc(-c4ccccc4)n3)cc3ccccc23)CC1 | 1.74 | 4.01 µM
15 | Oc1c(I)cc(I)cc1CNCCCN(Cc1ccccn1)Cc1ccccn1 | 1.01 | 2.34 µM
16 | Cc1ccc(C(=O)Nc2ccc(CN3CCN(C)CC3)c(C(F)(F)F)c2)cc1C#Cc1cncc2ncccc12 | 1.46 | 18.5 µM
17 | COc1ccc(N2CCN(CC(=O)N3CCN(c4nnc(-c5ccccc5)c(-c5ccccc5)n4)CC3)CC2)cc1 | 2.44 | 12.8 µM
18 | O=C1NC(=O)c2c1c1c3ccccc3ccc1c1[nH]c3ccc(Br)cc3c21 | 1.56 | 3.99 µM
19 | COc1ccc(C(=O)Nc2ncc(Cc3ccc(F)cc3)s2)cc1 | 0.362 | > 100 µM
20 | COc1ccc2c(c1)c(CC(=O)[Se]CCC#N)c(C)n2C(=O)c1ccc(Cl)cc1 | 2.5 | 6.93 µM
21 | O=C1C(N2CCN(c3ccccc3)CC2)=C(Cl)C(=O)c2ncccc21 | 1.59 | 3.16 µM
22 | O=C1OCC2=C1C(c1cccc(F)c1)c1cc3c(cc1N2CCO)OCCO3 (configuration not stated) | 0.125 | 
23 | c1ccc(-c2n(Cc3ccc4ccccc4n3)c3ccccc3[n+]2Cc2ccc3ccccc3n2)cc1 | 0.105 | 0.512 µM
24 | C=C(C)[C@@H]1CC[C@]2(COS(C)(=O)=O)CC[C@]3(C)[C@H](CC[C@@H]4[C@@]5(C)CCCNC(C)(C)[C@@H]5CC[C@]43C)[C@@H]12 | 1.75 | 3.23 µM

Row | Structure (SMILES) | GI50 [µM] | TGI
25 | O=C(Cc1ccc(/C=C/C(=O)c2ncc[nH]2)cc1)Nc1ccc(Br)cc1 | 1.42 | 4.09 µM
26 | COc1ccc(/C=C/c2nc(N3CCOCC3)c3cc(F)c(F)cc3n2)cc1OC | 0.748 | 8.03 µM
27 | NC(=O)Nc1ccc2ncnc(Nc3ccc(Cl)cc3)c2c1 | 1.43 | 8.28 µM
28 | C[C@@H]1CN(Cc2ccc(/C=C/c3n[nH]c4ccc5nc(-c6cn[nH]c6C(F)(F)F)c6c(c5c34)CCCC6)cc2)C[C@H](C)O1 | 5.89 | 22.2 µM
29 | O=C(Cc1ccccc1)Nc1nnc(CCSCCc2nnc(NC(=O)Cc3ccccc3)s2)s1 | 36 | > 100 µM
30 | Cc1cc(N(CCCNc2ccnc3cc(Cl)ccc23)Cc2cccs2)nc(Cl)n1 | 0.853 | 5.74 µM
31 | COc1cc(C2c3cc4c(cc3C3OC(=O)C2C3CO)OCO4)cc(OC)c1OC (configuration not stated) | < 0.01 | > 100 µM
32 | Nc1c(C(=O)Nc2cccc3ccccc23)sc2nc3c(cc12)CCCC3 | 0.327 | > 100 µM
33 | COC(=O)[C@]12CC[C@@H](C)[C@H](C)[C@@H]1C1=CC[C@@H]3[C@@]4(C)C(c5ncon5)=C[C@@](C)(CO)C4=CC[C@@]3(C)[C@]1(C)CC2 | 1.95 | 3.8 µM
34 | COc1cc2c3c(cc4c5c(ccc4c3c1OC)OCO5)N(CCN(C)C)C2=O | 0.0731 | 0.412 µM
35 | Clc1ccccc1-c1nc2ccccc2[nH]1 | 37 | > 100 µM
36 | O=C1CC(c2ccccc2)Cc2nc3ccc(Cl)cc3cc21 (configuration not stated) | 2.86 | > 26.1 µM
37 | COc1cc(Nc2ncc3c(n2)-c2ccc(Cl)cc2C(c2c(F)cccc2OC)=NC3)ccc1C(=O)O | 0.0456 | 19.9 µM
38 | O=C(c1ccc(O)cc1)c1ccc(C(=O)c2ccc(O)cc2)cc1 | 6.5 | > 100 µM
39 | Cn1cc(-c2csc(-c3cn(CCN4CCOCC4)c4ccc(F)cc34)n2)c2cccnc21 | 2.2 | 8.59 µM
40 | Cc1cc(C)cc(Nc2nccc(-c3c(-c4ccc(F)cc4)ncn3C3CCNCC3)n2)c1 | 1.14 | 2.76 µM
41 | CC(C)(C)c1ccc(C(=O)N/N=C/c2ccc(O)cc2O)cc1 | 0.396 | 2.24 µM
42 | CC(C)[C@@H](C(=O)O[C@@H]1/C=C/C(=O)O[C@@H](C)CCC/C=C/[C@@H]2C[C@H](O)C[C@H]21)[N+](C)(C)C | > 100 | > 100 µM
43 | Cc1cc2nc3ccc(N=Nc4ccc(N(C)C)cc4)cc3n(-c3ccccc3)c-2cc1=N | 0.0195 | 0.199 µM
44 | COC(=O)Nc1nc2c(OC)c(OC)c(OC)cc2[nH]1 | 14.3 | > 77.3 µM
45 | O=C1Nc2ccccc2C12CC(c1ccccc1)=NN2 (configuration not stated) | 6.96 | > 100 µM
46 | COc1ccc(-c2nnc3n(C)c(=O)c4ccccc4n23)cc1O | 1.21 | 14 µM
47 | Cc1cc[c-]cc1.Fc1c[c-]c(-c2ccccn2)c(F)c1.N#CCC[PH+](CCC#N)c1ccccc1.[Pt+2] | 2.88 | 9.11 µM
